Assay results published in the supplement of paper PMC10733146.

How the values were obtained:
Experiment in all cases: viability relative to DMSO control (fraction); higher = less drug effect (more viable cells)
Conditions in all cases: 48 h
[1] = test system: primary AML patient cells (S002)
Summary of the method: (§1)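 Viability was quantified by CellTiter-Glo luminescence and related to the median of 16 inner DMSO wells. Before that, primary mononuclear tumour cells, fresh or cryopreserved and Ficoll-isolated from blood or bone marrow or prepared from processed lymph node, were plated at 4 × 10^4 cells per well in 384-well plates containing pre-plated compounds at five concentrations, one well each. Plates were incubated in RPMI-1640 with penicillin/streptomycin, L-glutamine and human serum at 37 °C and 5% CO2 for 48 h.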

[2] = test system: primary AML patient cells (S009)
Summary of the method: as §1

[3] = test system: primary AML patient cells (S011)
Summary of the method: as §1

[4] = test system: primary AML patient cells (S012)
Summary of the method: as §1

[5] = test system: primary AML patient cells (S017)
Summary of the method: as §1

[6] = test system: primary AML patient cells (S019)
Summary of the method: as §1

[7] = test system: primary AML patient cells (S021)
Summary of the method: as §1

[8] = test system: primary AML patient cells (S025)
Summary of the method: as §1

[9] = test system: primary AML patient cells (S037)
Summary of the method: as §1

[10] = test system: primary AML patient cells (S081)
Summary of the method: as §1

[11] = test system: primary AML patient cells (S085)
Summary of the method: as §1

[12] = test system: primary AML patient cells (S091)
Summary of the method: as §1

[13] = test system: primary B-PLL patient cells (S016)
Summary of the method: as §1

[14] = test system: primary BL patient cells (S005)
Summary of the method: as §1

[15] = test system: primary FL patient cells (S022)
Summary of the method: as §1

[16] = test system: primary FL patient cells (S087)
Summary of the method: as §1

[17] = test system: primary MCL patient cells (S041)
Summary of the method: as §1

[18] = test system: primary MCL patient cells (S053)
Summary of the method: as §1

[19] = test system: primary MCL patient cells (S068)
Summary of the method: as §1

[20] = test system: primary T-PLL patient cells (S008)
Summary of the method: as §1

Nc1nc(Cl)nc2c1ncn2[C@@H]1O[C@H](CO)[C@@H](O)[C@@H]1F [Clofarabine]
viability ([1]; 0.024 µM): 0.696
viability ([1]; 0.12 µM): 0.427
viability ([1]; 0.6 µM): 0.375
viability ([1]; 3 µM): 0.387
viability ([1]; 15 µM): 0.329
viability ([2]; 0.024 µM): 0.585
viability ([2]; 0.12 µM): 0.541
viability ([2]; 0.6 µM): 0.391
viability ([2]; 3 µM): 0.381
viability ([2]; 15 µM): 0.258
viability ([3]; 0.024 µM): 0.762
viability ([3]; 0.12 µM): 0.535
viability ([3]; 0.6 µM): 0.299
viability ([3]; 3 µM): 0.17
viability ([3]; 15 µM): 0.0898
viability ([4]; 0.024 µM): 0.956
viability ([4]; 0.12 µM): 0.826
viability ([4]; 0.6 µM): 0.459
viability ([4]; 3 µM): 0.276
viability ([4]; 15 µM): 0.136
viability ([5]; 0.024 µM): 1.06
viability ([5]; 0.12 µM): 0.91
viability ([5]; 0.6 µM): 0.538
viability ([5]; 3 µM): 0.3
viability ([5]; 15 µM): 0.149
viability ([6]; 0.024 µM): 0.918
viability ([6]; 0.12 µM): 0.476
viability ([6]; 0.6 µM): 0.392
viability ([6]; 3 µM): 0.431
viability ([6]; 15 µM): 0.345
viability ([7]; 0.024 µM): 0.755
viability ([7]; 0.12 µM): 0.425
viability ([7]; 0.6 µM): 0.286
viability ([7]; 3 µM): 0.21
viability ([7]; 15 µM): 0.201
viability ([8]; 0.024 µM): 0.528
viability ([8]; 0.12 µM): 0.46
viability ([8]; 0.6 µM): 0.478
viability ([8]; 3 µM): 0.492
viability ([8]; 15 µM): 0.463
viability ([9]; 0.024 µM): 1.01
viability ([9]; 0.12 µM): 0.834
viability ([9]; 0.6 µM): 0.656
viability ([9]; 3 µM): 0.651
viability ([9]; 15 µM): 0.627
viability ([10]; 0.024 µM): 1.08
viability ([10]; 0.12 µM): 1.07
viability ([10]; 0.6 µM): 0.861
viability ([10]; 3 µM): 0.684
viability ([10]; 15 µM): 0.415
viability ([11]; 0.024 µM): 0.897
viability ([11]; 0.12 µM): 0.41
viability ([11]; 0.6 µM): 0.286
viability ([11]; 3 µM): 0.468
viability ([11]; 15 µM): 0.555
viability ([12]; 0.024 µM): 0.661
viability ([12]; 0.12 µM): 0.527
viability ([12]; 0.6 µM): 0.482
viability ([12]; 3 µM): 0.459
viability ([12]; 15 µM): 0.425
viability ([13]; 0.024 µM): 0.711
viability ([13]; 0.12 µM): 0.332
viability ([13]; 0.6 µM): 0.0601
viability ([13]; 3 µM): 0.034
viability ([13]; 15 µM): 0.0319
viability ([14]; 0.024 µM): 0.929
viability ([14]; 0.12 µM): 0.925
viability ([14]; 0.6 µM): 0.761
viability ([14]; 3 µM): 0.882
viability ([14]; 15 µM): 0.735
viability ([15]; 0.024 µM): 0.817
viability ([15]; 0.12 µM): 0.643
viability ([15]; 0.6 µM): 0.457
viability ([15]; 3 µM): 0.306
viability ([15]; 15 µM): 0.256
viability ([16]; 0.024 µM): 0.823
viability ([16]; 0.12 µM): 0.673
viability ([16]; 0.6 µM): 0.587
viability ([16]; 3 µM): 0.536
viability ([16]; 15 µM): 0.547
viability ([17]; 0.024 µM): 0.862
viability ([17]; 0.12 µM): 0.254
viability ([17]; 0.6 µM): 0.0698
viability ([17]; 3 µM): 0.0397
viability ([17]; 15 µM): 0.0361
viability ([18]; 0.024 µM): 0.492
viability ([18]; 0.12 µM): 0.356
viability ([18]; 0.6 µM): 0.266
viability ([18]; 3 µM): 0.255
viability ([18]; 15 µM): 0.211
viability ([19]; 0.024 µM): 0.522
viability ([19]; 0.12 µM): 0.301
viability ([19]; 0.6 µM): 0.203
viability ([19]; 3 µM): 0.156
viability ([19]; 15 µM): 0.128
viability ([20]; 0.024 µM): 0.989
viability ([20]; 0.12 µM): 0.864
viability ([20]; 0.6 µM): 0.64
viability ([20]; 3 µM): 0.562
viability ([20]; 15 µM): 0.551
